Experimental data from ChEMBL document CHEMBL1667734, “Eutypoids B-E produced by a Penicillium sp. strain from the North Sea” (J Nat Prod, 2011).
Activity calls are given as the source filed them. The calls are words filed in the database; no cut-off is given here.

Columns and labels:
[1] = test system: Mammaliicoccus lentus; assay: Antimicrobial activity against Staphylococcus lentus DSM 6672; assay type: functional, organism-based
[2] = test system: Pseudomonas syringae pv. aptata str. DSM 50252; assay: Antimicrobial activity against Pseudomonas syringae pv aptata DSM 50252; assay type: functional
[3] = test system: Xanthomonas campestris; assay: Antimicrobial activity against Xanthomonas campestris DSM 2405; assay type: functional, organism-based
[4] = test system: HT-29; assay: Cytotoxicity against human HT-29 cells after 24 hrs by celltiter-blue assay; assay type: functional, cell-based
[5] = test system: Bacillus subtilis; assay: Antimicrobial activity against Bacillus subtilis DSM 347; assay type: functional, organism-based
[6] = test system: Nakaseomyces glabratus; assay: Antimicrobial activity against Candida glabrata DSM 6425; assay type: functional, organism-based
[7] = test system: HepG2; assay: Cytotoxicity against human HepG2 cells after 24 hrs by celltiter-blue assay; assay type: functional, cell-based
[8] = biological target: Glycogen synthase kinase-3 beta (Homo sapiens, UniProt P49841); assay: Inhibition of GSK3-beta by luminescent assay
[9] = test system: Cutibacterium acnes; assay: Antimicrobial activity against Propionibacterium acnes DSM 1897; assay type: functional, organism-based
[10] = test system: Staphylococcus epidermidis; assay: Antimicrobial activity against Staphylococcus epidermidis DSM 20044; assay type: functional, organism-based
[11] = test system: Ralstonia solanacearum; assay: Antimicrobial activity against Ralstonia solanacearum DSM 9544; assay type: functional, organism-based
[12] = test system: Erwinia amylovora; assay: Antimicrobial activity against Erwinia amylovora DSM 50901; assay type: functional, organism-based
[13] = test system: Pseudomonas aeruginosa; assay: Antimicrobial activity against Pseudomonas aeruginosa DSM 50071; assay type: functional, organism-based
[14] = test system: Zymoseptoria tritici; assay: Antimicrobial activity against Septoria tritici; assay type: functional, organism-based
[15] = Cytotoxicity against mouse NIH/3T3 cells after 24 hrs by celltiter-blue assay; assay type: cell-based; details: nih3t3, 24 h
[16] = test system: Pseudomonas fluorescens; assay: Antimicrobial activity against Pseudomonas fluorescens NCIMB 10586; assay type: functional, organism-based
[17] = test system: Escherichia coli; assay: Antimicrobial activity against Escherichia coli K-12 DSM 498; assay type: functional, organism-based
[18] = test system: Parastagonospora nodorum; assay: Antimicrobial activity against Septoria nodorum; assay type: functional, organism-based

Glycogen synthase kinase-3 beta, sequence (P49841 whole entry): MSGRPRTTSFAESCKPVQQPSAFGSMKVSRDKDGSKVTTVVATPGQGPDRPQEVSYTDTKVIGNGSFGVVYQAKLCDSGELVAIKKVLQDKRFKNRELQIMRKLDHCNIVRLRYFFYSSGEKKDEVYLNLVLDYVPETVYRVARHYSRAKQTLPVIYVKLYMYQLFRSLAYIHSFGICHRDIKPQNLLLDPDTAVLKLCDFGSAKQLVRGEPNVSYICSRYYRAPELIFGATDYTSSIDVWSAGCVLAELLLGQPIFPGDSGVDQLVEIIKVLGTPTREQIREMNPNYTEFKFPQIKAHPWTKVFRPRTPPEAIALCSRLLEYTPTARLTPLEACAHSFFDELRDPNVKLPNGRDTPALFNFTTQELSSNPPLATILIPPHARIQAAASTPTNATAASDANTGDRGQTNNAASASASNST

SMILES | Activity [1] | Activity [2] | Activity [3] | Activity [4] | Activity [5] | Activity [6] | Activity [7] | IC50 [8] [nM] | Activity [9] | Activity [10] | Activity [11] | Activity [12] | Activity [13] | Activity [14] | Activity [15] | Activity [16] | Activity [17] | Activity [18]
O=C1OCC(Cc2ccc(O)c(O)c2)=C1c1ccc(O)cc1 [EUTYPOID C] | inactive | inactive | inactive | inactive | inactive | inactive | inactive | 670 | inactive | inactive | inactive | inactive | inactive | inactive | Non-toxic | inactive | inactive | –
O=C1OCC(Cc2ccccc2)=C1c1ccccc1 | – | – | – | – | – | – | – | – | – | – | – | – | – | – | – | – | – | Active
O=C1OCC(Cc2ccc(O)c(O)c2)=C1c1cc(O)cc(O)c1 [EUTYPOID E] | inactive | inactive | inactive | inactive | inactive | inactive | inactive | 2260 | inactive | inactive | inactive | inactive | inactive | inactive | Non-toxic | inactive | inactive | –
O=C1OCC(Cc2ccc(O)cc2)=C1c1ccc(O)cc1 [EUTYPOID B] | inactive | inactive | inactive | inactive | inactive | inactive | inactive | 780 | inactive | inactive | inactive | inactive | inactive | inactive | Non-toxic | inactive | inactive | –
O=C1OCC(Cc2ccc(O)cc2)=C1c1cc(O)cc(O)c1 [EUTYPOID D] | inactive | inactive | inactive | inactive | inactive | inactive | inactive | 4080 | inactive | inactive | inactive | inactive | inactive | inactive | Non-toxic | inactive | inactive | –
